Experimental data as given in patent publication US12599602B2, “Methods for treating cholestasis” (Mirum Pharmaceuticals, Inc., priority 2019, dated 2026).
Where “and” joins values, the source holds several entries; their conditions need not be identical. Equal values may be shown once. Read-outs that look alike come from different tables or passages of the source.

Tests used:
[1] = tested on: Children with Alagille Syndrome
Procedure: Children aged 1-18 years with a diagnosis of ALGS and evidence of cholestasis were eligible to enroll in the ICONIC clinical study, see Tables 12-14. During a long-term extension, participants with sBA levels above the upper limit of normal and/or an ITCHRO(OBS) score >1.5 were eligible for the 400 μg/kg BID dose (all participants received the 400 μg/kg BID dose). Inclusion criteria for the ICONIC study included having cholestasis, which was defined as at least one of 1) sBA concentration (total sBA) >3× the upper limit of normal, 2) serum conjugated bilirubin concentration >1 mg/dL, 3) fat-soluble vitamin deficiency not otherwise explained, 4) serum gamma-glutamyl transferase concentration >3× the upper limit of normal, and 3) intractable pruritus explainable only by liver disease. Inclusion criteria also included having significant pruritus, which was defined as an average daily score of >2 on the ITCHRO(OBS) scale for 2 consecutive weeks (0=no pruritus; 4=most severe pruritus). Exclusion criteria included having surgically disrupted enterohepatic circulation, a liver transplant, decompensated cirrhosis, or having any liver disease other than ALGS.
sBA responders were defined as those patients achieving ≥50% reduction from baseline in sBA at week 12 or 18. ITCHRO responders were defined as those patients achieving at least a 1-point reduction from Baseline in weekly morning ITCHRO(OBS) score at week 12 or 18.
In the open label extension, the effect of higher doses was explored by increasing dosage to a maximum of 400 μg/kg BID in eligible participants.
Efficacy assessments were based on changes from baseline in sBA concentration, weekly average ITCHRO(OBS) scores (0, none; 4, most severe), CSS score (0, none; 4 most severe), and Clinician Xanthoma Scale score (0, none; 4, disabling). […] During the long-term extension, efficacy assessments were conducted every 12 weeks. Serum total cholesterol and serum 7αC4 concentration were also monitored during the ICONIC clinical study, among other measures.
sBA were measured using a fully validated liquid chromatography-electrospray ionization-mass electrospray (LC-ESI-MS) method using stable-isotope dilution analysis to measure serum concentrations of principal bile acids (cholic, chenodeoxycholic, ursodeoxycholic, deoxycholic acid, lithocholic, and their corresponding glycine and taurine conjugates). Serum samples were analyzed in the Division of Pathology and Laboratory Medicine, Cincinnati Children's Hospital Medical Center according to SOP #PATH.CMS.1033. Calibration standards of individual bile acids were in the range of 50-25,000 ng/mL and Quality Control samples were prepared at concentrations of 100, 500, 1000, 2500, and 20000 ng/mL. The intra- and inter-assay imprecision of the method for individual bile acids measured was within the accepted GLP quality assurance guidelines of <15% coefficient of variance for these QC samples. The lower limit of quantification of the assay was set at 100 ng/mL and the imprecision at this concentration was <20%. The limit of detection of the assay was 5 ng/mL. Total sBA is represented by the sum of the individual bile acid species measured.

[2] = tested on: Overweight and obese adults; assay: Phase 1 blinded, placebo-controlled, dose-ranging clinical study (NCT02475317), fecal bile acid excretion
Procedure: Participants consumed a low-fiber diet (<10 mg/day) for 2 days before randomization and during the 7-day treatment period. Measurements were taken of fBA, sBA concentration, and serum 7αC4 concentration (which is a biomarker of bile acid synthesis) prior to drug administration and at day 7.

[3] = Withdrawal-Week 22, Maralixibat group
[4] = first 18 weeks of treatment, 400 μg/kg QD
[5] = one line per Subject ID (Table 18)
[6] = one line per Subject ID (Table 19)
[7] = sBA Normalization (<8.5 μmol/L)

In the case of maralixibat, the “ItchRO (Obs) responders, Decrease from baseline ≥1.25” value ([1]; Open-label Week 48) is reported as 58.6%, the “ItchRO (Obs) responders, Decrease from baseline ≥1.5” value ([1]; Open-label Week 48) is reported as 51.7% and the “C4, Mean” value ([1]; Week 48, n = 15) is reported as 20.4 ng/mL. The “Serum cholesterol, Mean” value ([1]; Week 48, n = 15) was 340.3 mg/dL, the “C4, Mean” value ([1]; Week 191, n = 15) was 30.4 ng/mL and the “Serum cholesterol, Mean” value ([1]; Week 191, n = 15) was 277.5 mg/dL. For the same substance, the “ItchRO (Obs) responders, Decrease from baseline ≥1” value [1, 3] was 53.8%, the “ItchRO (Obs) responders, Decrease from baseline ≥1.25” value [1, 3] was 46.2% and the “ItchRO (Obs) responders, Decrease from baseline ≥1.5” value [1, 3] was 23.1%. For the same substance, the “study days with minimal or no pruritus (ITCHRO(OBS)≤1)” value ([1]; after 98 weeks, across participants) was “over 89%”, the “Clinician xanthoma scale scores” value ([1]; all participants by week 48) was “improved significantly” and the “CSS score, mean reduction” value ([1]; at 191 weeks) was 2.4 points. For the same substance, the “ITCHRO(OBS) score, mean change from baseline” value ([1]; at 191 weeks) was −2.5, the “sBA levels, reduction from baseline” value ([1]; at 191 weeks) was “about 57%” and the “ITCHRO(OBS) final score” value ([1]; at 193 weeks) was “about 0.33”. For the same substance, the “ITCHRO(OBS) score, mean reduction” value ([1]; at 193 weeks) was “over 2 points”, the “CSS final average score” value ([1]; by week 48, all participants) was “about 1.5” and the “CSS scores, average decrease” value ([1]; by week 48, all participants) was “over 1.5 points”. The “Clinician Xanthoma Score, reduction from baseline” value ([1]; by week 191) was 0.7 points, the “ITCHRO(OBS) scores, average decrease relative to baseline” value ([1]; by week 193 (second statement of b611)) was “over 1.5 points” and the “PedsQL Multidimensional Fatigue Scale scores” value ([1]; core study and extension) was “Improvements”. The tolerability ([1]; core study and extension, over three years) was “well tolerated”, the tolerability ([1]; doses up to 800 μg/kg/day, treatment duration up to 4 years) was “generally well tolerated” and the “ITCHRO(OBS) scores, mean change from baseline” value [1, 4] was −1.7. The “sBA concentration, decrease” value [1, 4] was 31%, the “Serum Bile Acid, Change from Baseline to Week 48” value [1, 5] was −166.3 μmol/L and −281.4 μmol/L and 166.4 μmol/L and −121.1 μmol/L and 4.3 μmol/L (2×) and −251.0 μmol/L and 3.3 μmol/L and −27.3 μmol/L and −155.5 μmol/L and −240.2 μmol/L and 9.0 μmol/L and 143.1 μmol/L and −112.2 μmol/L and 16.4 μmol/L and −10.9 μmol/L and −16.9 μmol/L and 54.5 μmol/L and −620.4 μmol/L and −23.9 μmol/L and −377.3 μmol/L and −205.9 μmol/L and −270.4 μmol/L and 25.5 μmol/L and −203.6 μmol/L and −96.4 μmol/L and −33.9 μmol/L and −56.4 μmol/L and the “Serum Bile Acid, Week 48” value [1, 5] was 131.8 µmol/L and 98.5 µmol/L and 578.1 µmol/L and 20.8 µmol/L and 333.0 µmol/L and 119.6 µmol/L and 117.7 µmol/L and 492.6 µmol/L and 427.9 µmol/L and 199.8 µmol/L and 29.2 µmol/L and 891.6 µmol/L and 163.4 µmol/L and 60.2 µmol/L and 12.0 µmol/L and 23.6 µmol/L and 126.1 µmol/L and 37.0 µmol/L and 7.0 µmol/L and 101.9 µmol/L and 293.3 µmol/L and 65.0 µmol/L and 110.9 µmol/L and 35.8 µmol/L and 208.0 µmol/L and 55.8 µmol/L and 15.6 µmol/L and 22.9 µmol/L. For the same substance, the “ItchRO(Obs) Weekly Morning Average Score, Change from Baseline to Week 48” value [1, 6] was −0.12 and 0.49 and −0.45 and 1.29 and −3.86 and 0.00 and −2.57 and −1.86 (2×) and −1.71 (2×) and −1.00 (2×) and −1.29 and −1.67 and −1.14 and −1.03 and −3.29 (2×) and −3.43 and −2.50 and −2.71 (2×) and −3.50 and −2.29 and −0.17 and −1.43 and −0.83, the “ItchRO(Obs) Weekly Morning Average Score, Week 48” value [1, 6] was 2.71 and 3.20 and 1.83 and 3.71 and 0.14 and 1.86 and 0.71 and 1.14 (2×) and 0.29 (2×) and 2.00 (2×) and 1.71 (2×) and 1.00 and 1.40 and 0.00 (7×) and 1.43 and 1.57 and 3.50 and 2.17 and the “Height Z-score, increase from baseline” value ([1]; participants in the ICONIC clinical study) was 0.5. For the same substance, the “growth after dose increase” value ([1]; patients (N=15) given 400 μg/kg BID after 400 μg/kg QD for in excess of about 40 weeks) was “further increase in growth from baseline”, the “ITCHRO(OBS), LS mean difference maralixibat vs placebo” value ([1]; randomized withdrawal) was −1.5 and the “sBA levels, least squares mean difference maralixibat vs placebo” value ([1]; randomized withdrawal (week 18-22)) was −114.0. For the same substance, the “ItchRO(Obs) Weekly Morning Average Score, Average Change from Baseline” value [1, 7] was −3.50, the “ItchRO(Obs) Weekly Morning Average Score, Week 48 Average Score” value [1, 7] was 0.00 and the “ItchRO(Obs) Weekly Morning Average Score, Average Change from Baseline” value ([1]; sBA ≥50% Reduction) was −1.86. For the same substance, the “ItchRO(Obs) Weekly Morning Average Score, Week 48 Average Score” value ([1]; sBA ≥50% Reduction) was 1.07, the “ItchRO(Obs) Weekly Morning Average Score, Average Change from Baseline” value ([1]; sBA ≥60% Reduction) was −2.12 and the “ItchRO(Obs) Weekly Morning Average Score, Week 48 Average Score” value ([1]; sBA ≥60% Reduction) was 0.82. The “ItchRO(Obs) Weekly Morning Average Score, Average Change from Baseline” value ([1]; sBA ≥70% Reduction) was −2.31, the “ItchRO(Obs) Weekly Morning Average Score, Week 48 Average Score” value ([1]; sBA ≥70% Reduction) was 0.62 and the “ItchRO(Obs) Weekly Morning Average Score, Average Change from Baseline” value ([1]; sBA ≥80% Reduction) was −2.79. The “ItchRO(Obs) Weekly Morning Average Score, Week 48 Average Score” value ([1]; sBA ≥80% Reduction) was 0.11, the “ItchRO(Obs) Weekly Morning Average Score, Average Change from Baseline” value ([1]; sBA ≥90% Reduction) was −2.71 and the “ItchRO(Obs) Weekly Morning Average Score, Week 48 Average Score” value ([1]; sBA ≥90% Reduction) was 0.00. The “relation between reduction in sBA concentration and reduction of severity of pruritus (ITCHRO(OBS))” value ([1]; week 48) was “positive correlation”, the “sBA response, Week 48 (N = 28) n (%)” value ([1]; ≥50% Reduction) was 13 (46.4%) and the “sBA response, Week 48 (N = 28) n (%)” value ([1]; ≥60% Reduction) was 11 (39.3%). For the same substance, the “sBA response, Week 48 (N = 28) n (%)” value ([1]; ≥70% Reduction) was 8 (28.6%), the “sBA response, Week 48 (N = 28) n (%)” value ([1]; ≥80% Reduction) was 4 (14.3%) and the “sBA response, Week 48 (N = 28) n (%)” value ([1]; ≥90% Reduction) was 1 (3.6%). For the same substance, the “fBA excretion, mean change from baseline” value ([2]; 10 mg dose, 7 days) was 515 µmol, the “fBA excretion, mean change from baseline” value ([2]; 20 mg dose, 7 days) was 532 µmol and the “fBA excretion, mean change from baseline” value ([2]; 50 mg BID, 7 days) was 1251 µmol. For the same substance, the “fBA excretion, mean change from baseline” value ([2]; 100 mg QD, 7 days) was 1144 µmol, the “Mean sBA levels” value ([2]; 7 days) was “not elevated” and the fBA excretion ([2]; across doses) was “increased in a dose-dependent manner”. For the same substance, the “treatment-emergent adverse events occurring in over 10% of participants” value ([2]; all doses) was “headache and diarrhea”, the “treatment-emergent adverse events, severity” value ([2]; all doses) was “mild, and none were serious” and the “Mean serum 7αC4” value ([2]; baseline to day 7) was “increased”.
